Assay results published in patent US20150216177A1, “METHOD FOR SELECTIVELY INHIBITING SULFATE-REDUCING BACTERIUM, GYPSUM COMPOSITION CAPABLE OF INHIBITING PROLIFERATION OF SULFATE-REDUCING BACTERIUM BY SAID METHOD, GYPSUM-TYPE SOLIDIFYING MATERIAL, AND GYPSUM-TYPE BUILDING MATERIAL” (priority 2012, published 2015).

Tests used:
Format in all cases: cell-based
[1] = tested on: Sulfate-reducing bacterium: Desulfovibrio vulgaris DSM 644T
[2] = tested on: Butyric acid bacterium: Clostridium butyricum NBRC 13949T; conditions: 2 mM or 20 mM Al solution in culture medium, anaerobic shaking culture 37° C.; FIG. 3 / FIG. 6
[3] = tested on: Colon bacillus: Escherichia coli NBRC 102203T; test: Proliferation-inhibiting (bacteriostatic) effect in Al-added culture medium, protein amount by BCA method; conditions: 2 mM or 20 mM Al solution in culture medium, anaerobic shaking culture 37° C.; FIG. 2 / FIG. 5

| Compound | proliferation of the sulfate-reducing bacterium (increase in protein amount) [1] | proliferation of the butyric acid bacterium (increase in protein amount) [2] | proliferation of the colon bacillus (increase in protein amount) [3] | selective bacteriostatic effect (sulfate-reducing bacterium versus colon bacillus and butyric acid bacterium) [1] |
| --- | --- | --- | --- | --- |
| [Cl][Al]([Cl])[Cl] [Comparative Example 1, AlCl3, reference compound] | inhibited | inhibited | inhibited |  |
| EDTA/Al chelate [Example 3] |  |  |  | same selective bacteriostatic effects as in Example 1 were also recognized |
| citric acid/Al chelate [Example 1] | inhibited | not inhibited | not inhibited | selective bacteriostatic effect was recognized |
| oxalic acid/Al chelate [Example 2] |  |  |  | same selective bacteriostatic effects as in Example 1 were also recognized |
